Results published in patent publication US20110306503A1, “TEMPLATE-DEPENDENT NUCLEIC ACID POLYMERIZATION USING OLIGONUCLEOTIDE TRIPHOSPHATES BUILDING BLOCKS” (Yeda Research And Development Co. Ltd., priority 1999, published 2011).

Target: T1, Taq DNA polymerase (Thermus aquaticus, UniProt P19821)
T1 construct: a truncated version of Taq DNA polymerase (543 amino acids of the C-terminus part); made in house; host or cells: E. coli JM109 (pTTQ vector)
Experiment: Labeled-primer extension assay
Format: biochemical
Conditions: for template-dependent incorporation: template T83, ApG3p and TpC3p together, FIG. 8 lane 2; for incorporation of complementary versus non-complementary dinucleotide: dinucleotide alone, FIG. 7 lanes 6 and 7
Experimental: The oligonucleotides that were used for this assay are detailed in Table 4 before. The reactions of labeled-primer extension included: polymerization buffer (40 mM Tricine-KOH, pH 8.0; 16 mM KCl; 5 mM MgCl2 and 4 μg BSA), 1 pmol template, 0.2 pmol of the p201 primer (labeled at its 5′ with P^32-γ-ATP using T4 polynucleotide kinase), 1 μM of the indicated dNTP's and 50 μM of the indicated di- or trinucleotide triphosphates in a total volume of 20 μl. The reactions were incubated for 5 minutes at 45° C., then 5 units of Taq DNA polymerase (see Example 3 for details) were added, followed by 20 minutes at 72° C. The reactions were terminated with 15 μl of stop solution (95% formamide, 20 mM EDTA and 0.05% bromophenol blue). Three μl were then separated on Urea-PAGE, and the radiolabeled DNA-bands were detected by phosphoimaging.

T1 sequence (P19821 290-832 limits assumed): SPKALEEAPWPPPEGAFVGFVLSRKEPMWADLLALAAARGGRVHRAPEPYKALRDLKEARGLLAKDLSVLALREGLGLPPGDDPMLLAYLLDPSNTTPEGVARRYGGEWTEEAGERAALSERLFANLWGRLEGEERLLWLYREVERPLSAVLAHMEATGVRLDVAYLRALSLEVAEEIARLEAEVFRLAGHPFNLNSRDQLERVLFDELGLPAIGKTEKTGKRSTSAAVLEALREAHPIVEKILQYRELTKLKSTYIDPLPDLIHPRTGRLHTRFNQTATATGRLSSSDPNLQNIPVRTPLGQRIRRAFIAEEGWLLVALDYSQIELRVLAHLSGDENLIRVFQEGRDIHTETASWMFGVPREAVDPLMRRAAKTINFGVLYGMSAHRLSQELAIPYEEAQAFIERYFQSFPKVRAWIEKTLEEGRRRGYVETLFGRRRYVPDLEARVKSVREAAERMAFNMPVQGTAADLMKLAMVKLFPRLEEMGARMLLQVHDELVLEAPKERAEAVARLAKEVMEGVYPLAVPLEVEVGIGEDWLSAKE

Compound	template-dependent incorporation	incorporation of complementary versus non-complementary dinucleotide (template T24)	other results
Nc1nc2c(ncn2[C@H]2C[C@H](O)[C@@H](COP(=O)(O)O[C@H]3C[C@H](n4cnc5c(N)ncnc54)O[C@@H]3CO)O2)c(=O)[nH]1 [ApG3p, 2′-deoxyadenylyl(3′-5′)-2′-deoxyguanosine]	template-dependent incorporation	–	–
Nc1ccn([C@H]2C[C@H](OP(=O)(O)OC[C@H]3O[C@@H](n4cnc5c(N)ncnc54)C[C@@H]3O)[C@@H](CO)O2)c(=O)n1 [CpA3p, 2′-deoxycytidylyl(3′-5′)-2′-deoxyadenosine]	–	seems to be incorporated	template-dependent incorporation onto 3′ end of labeled primer p201 (templates T80 and T81, 50 μM dinucleotide triphosphates, FIG. 6 lanes 3-7): correct incorporation; efficiency of incorporation compared to the natural dNTP's (templates T80 and T81, FIG. 6 lanes 3-7 vs lane 2): lower efficiency
Nc1ccn([C@H]2C[C@H](OP(=O)(O)OC[C@H]3O[C@@H](n4ccc(N)nc4=O)C[C@@H]3O)[C@@H](CO)O2)c(=O)n1 [CpC3p, 2′-deoxycytidylyl(3′-5′)-2′-deoxycytidine]	–	Only the complementary dinucleotide (CpA3p) seems to be incorporated	–
Cc1cn([C@H]2C[C@H](OP(=O)(O)OC[C@H]3O[C@@H](n4ccc(N)nc4=O)C[C@@H]3O)[C@@H](CO)O2)c(=O)[nH]c1=O [TpC3p, thymidylyl(3′-5′)-2′-deoxycytidine]	template-dependent incorporation	–	–
thymidylyl-3′-5′-thymidylyl-3′-5′-thymidine (DNA TTT; DNA, phosphodiester; triphosphate form of the trinucleotide, triphosphate end not given here, further chemistry not fully specified) [TpTpT3p]	–	–	template-dependent incorporation in a mix with dCTP and dATP (template T24, FIG. 7 lanes 4 and 5): utilized
